This test addresses T1, Mucosa-associated lymphoid tissue lymphoma translocation protein 1 (Homo sapiens, UniProt Q9UDY8).
T1 sequence (Q9UDY8 whole entry): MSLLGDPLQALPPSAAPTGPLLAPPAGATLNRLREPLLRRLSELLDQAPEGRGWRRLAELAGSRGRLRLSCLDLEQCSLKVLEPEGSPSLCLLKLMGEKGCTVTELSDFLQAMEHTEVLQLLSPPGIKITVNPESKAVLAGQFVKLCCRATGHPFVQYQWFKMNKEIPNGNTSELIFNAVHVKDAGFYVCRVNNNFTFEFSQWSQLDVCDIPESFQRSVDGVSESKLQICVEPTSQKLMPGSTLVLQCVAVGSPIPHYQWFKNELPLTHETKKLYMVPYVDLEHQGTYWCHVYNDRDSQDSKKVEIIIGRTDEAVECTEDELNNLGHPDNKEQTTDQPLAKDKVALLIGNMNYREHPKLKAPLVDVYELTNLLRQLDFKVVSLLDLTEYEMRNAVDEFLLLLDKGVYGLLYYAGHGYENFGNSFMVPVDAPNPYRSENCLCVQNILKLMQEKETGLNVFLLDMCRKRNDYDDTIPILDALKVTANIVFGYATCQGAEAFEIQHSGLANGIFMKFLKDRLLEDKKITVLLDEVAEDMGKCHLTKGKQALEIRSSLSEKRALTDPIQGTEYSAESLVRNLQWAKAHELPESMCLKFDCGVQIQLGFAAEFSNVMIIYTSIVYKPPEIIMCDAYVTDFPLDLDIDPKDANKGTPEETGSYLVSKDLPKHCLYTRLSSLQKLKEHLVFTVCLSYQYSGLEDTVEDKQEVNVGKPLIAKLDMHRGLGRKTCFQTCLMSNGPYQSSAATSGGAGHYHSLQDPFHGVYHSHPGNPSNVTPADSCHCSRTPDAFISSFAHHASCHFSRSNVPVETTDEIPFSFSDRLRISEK
The test is described as follows: Inhibition of Protease Activity Assay: Full-length cDNA of human MALT1 gene (GenBank accession No: AB026118.1) amplified by PCR was inserted in flame to a SalI site located downstream of GST gene in a pGEX6P3 vector (GE Healthcare Japan Corp.) to prepare a vector (hereinafter, referred to as a pGEX6P3-MALT1 vector). Subsequently, E. coli for protein expression (BL21-RIL-codon plus-DE3, Agilent Technologies, Inc.) was transformed with the pGEX6P3-MALT1 vector and then analyzed by ampicillin resistance screening and colony PCR to obtain an E. coli strain expressing recombinant GST fusion MALT1. Protein expression was induced with isopropyl-(3-thiogalactopyranoside. After the expression induction, E. coli precipitates were recovered by centrifugation from the E. coli culture solution, and the E. coli precipitates were homogenized and then centrifuged to obtain a supernatant. The supernatant was purified using GSTrap FF column (GE Healthcare Japan Corp.) to obtain recombinant GST fusion MALT1.B) Evaluation of Inhibition of Protease Activity of MALT1:To 89 μL of an enzyme solution ([…] GST fusion MALT1, 50 mmol/L MES, 150 mmol/L NaCl, 10% sucrose, 0.1% CHAPS, 10 mmol/L dithiothreitol, and 1 mol/L tri-ammonium citrate) per specimen, 1 μL of a test compound (DMSO-diluted solution) of each concentration was added to prepare a mixed solution. […].

By IC50 is commonly meant the concentration at which inhibition is half-maximal. For `CCCC(=O)/N=C(\N)NCc1cnc(-c2ccc(Cl)cc2)c(-c2ccc(Cl)cc2)c1`, the IC50 was 572 nM.

These data come from ChEMBL document CHEMBL5727716, “Guanidine derivative and medical use thereof” (2020).
